# Read-outs that look alike come from different tables or passages of the source.
# Test system: depressant effects of tetrabenazine (TBZ)
# Experiment: tetrabenazine (TBZ) antagonism assay in mice: exploratory activity (EA) and reversal of ptosis (Pt)
# Type: in vivo
# Conditions: for ED50: Mus musculus, ip; for percent inhibition at a certain dose, EA (exploratory activity): TBZ 32 mg/kg i.p.
# Experimental: The utility of the novel compounds of this patent is based on a standard test for antidepressant agents involving antagonism of the depressant effects of tetrabenazine (TBZ). This is the "classical" tetrabenazine antagonism assay described in U.S. Pat. No. 3,787,577. In this test, mice are injected with a test compound 30 minutes prior to the injection of 32 mg/kg i.p. of TBZ, a drug which decreases normal exploratory activity and induces ptosis. After 30 minutes, the mice are tested for two parameters: the presence of normal exploratory activity (EA) and reversal of ptosis (Pt). A control group of mice is given only 32 mg/kg i.p. of TBZ. The biological activity of the novel compounds of this invention may be understood by some representative, nonlimiting examples, presented in Tables I and II.
# Tables I lists the compounds tested by a compound number, structural formula, HX or acid addition salt form in which the compound was tested, test data, and internal code number (McN No.). Table II names the various Table I compounds.
# *ED50 given in mg/kg for each parameter (except for percent
# inhibition at a certain dose in mg/kg, given for four examples: XLIV, XLV
# [1] = mice, i.p., compound 30 minutes prior to 32 mg/kg i.p. TBZ, normal exploratory activity, read-out: TBZ ED50, EA (exploratory activity)
# [2] = mice, i.p., compound 30 minutes prior to 32 mg/kg i.p. TBZ, reversal of ptosis, read-out: TBZ ED50, Pt (reversal of ptosis)
# [3] = read-out: TBZ ED50, EA (exploratory activity)
# [4] = read-out: TBZ ED50, Pt (reversal of ptosis)
# [5] = mice, i.p., compound 30 minutes prior to 32 mg/kg i.p. TBZ, normal exploratory activity
# [6] = mice, i.p., compound 30 minutes prior to 32 mg/kg i.p. TBZ, reversal of ptosis
Structure (SMILES),ED50 [1] [mg/kg],ED50 [2] [mg/kg],further results
"COc1cccc([C@@H]2CN3CCC[C@@H]3c3ccccc32)c1 (relative stereo) [Compound XL, 1,2,3,5,6,10bβ-Hexahydro-6α-(3-methoxyphenyl)pyrrolo[2,1-a]isoquinoline]",~0.17,~0.07,
"Oc1cccc([C@@H]2CN3CCC[C@@H]3c3ccccc32)c1 (relative stereo) [Compound XLI, 3-(1,2,3,5,6,10bβ-Hexahydropyrrolo[2,1-a]isoquinolin-6α-yl)phenol]",> 10,0.11,
"Clc1ccc([C@@H]2CN3CCC[C@H]3c3cc(Cl)ccc32)cc1 (relative stereo) [Compound XLII, [6α,10bα]-9-Chloro-6-(4-chlorophenyl)-1,2,3,5,6,10b-hexahydropyrrolo[2,1-a]isoquinoline]",100,37,
"C[C@]12CCCN1C[C@@H](c1ccccc1)c1ccccc12 (relative stereo) [IVb, [6α,10bβ]-1,2,3,5,6,10b-Hexahydro-10b-methyl-6-phenylpyrrolo[2,1-a]isoquinoline]",9.2,3.8,
"C[C@]12CCCN1C[C@@H](c1ccc(F)cc1)c1ccc(F)cc12 (relative stereo) [L, 9-Fluoro-6α-(4-fluorophenyl)-1,2,3,5,6,10b-hexahydro-10bβ-methylpyrrolo[2,1-a]isoquinoline]",6.1,5.6,
"Clc1ccccc1[C@@H]1CN2CCC[C@@H]2c2ccccc21 (relative stereo) [LI, [6α,10bβ]-6-(2-chlorophenyl)-1,2,3,5,6,10b-hexahydropyrrolo[2,1-a]isoquinoline]",,0.2,"percent inhibition at a certain dose, EA (exploratory activity) (mice, i.p., @ 60 mg/kg): 37%"
"c1ccc([C@H]2Cc3ccccc3[C@@H]3CCCN23)cc1 (relative stereo) [LII, 1,2,3,5,6,10bα-Hexahydro-5α-phenylpyrrolo[2,1-a]isoquinoline]",,,ED50 [3]: ~30 mg/kg; ED50 [4]: 32 mg/kg
"Oc1cccc([C@@H]2CN3CCC[C@H]3c3ccccc32)c1 (relative stereo) [XLIV, 3-(1,2,3,5,6,10bα-Hexahydropyrrolo[2,1-a]isoquinolin-6α-yl)phenol]",,3.1,"percent inhibition at a certain dose, EA (exploratory activity) (mice, i.p., @ 30 mg/kg): 37%"
"FC(F)(F)c1cccc([C@@H]2CN3CCC[C@@H]3c3ccccc32)c1 (relative stereo) [XLIX, 1,2,3,5,6,10bβ-Hexahydro-6α-[(3-trifluoromethyl)phenyl]-pyrrolo[2,1-a]isoquinoline]",1.2,0.43,
"COc1ccc([C@@H]2CN3CCC[C@@H]3c3ccccc32)cc1OC (relative stereo) [XLV, 1,2,3,5,6,10bβ-Hexahydro-6α-(3,4-dimethoxyphenyl)pyrrolo[2,1-a]isoquinoline]",,0.14,"percent inhibition at a certain dose, EA (exploratory activity) (mice, i.p., @ 30 mg/kg): 33%"
"C[C@@]1(c2ccccc2)CN2CCC[C@H]2c2ccccc21 (relative stereo) [XLVI, 1,2,3,5,6,10bα-Hexahydro-6-methyl-6α-phenylpyrrolo[2,1-a]isoquinoline]",22.5,16,
"COc1cccc2c1[C@H](c1ccccc1)CN1CCC[C@H]21 (relative stereo) [XLVII, 1,2,3,5,6,10bβ-Hexahydro-7-methoxy-6α-phenylpyrrolo[2,1-a]isoquinoline]",,,ED50 [3]: 2.8 mg/kg; ED50 [4]: ~6.5 mg/kg
"Nc1ccc([C@@H]2CN3CCC[C@H]3c3ccccc32)cc1 (relative stereo) [XLVIII, 4-(1,2,3,5,6,10bα-Hexahydropyrrolo[2,1-a]isoquinoline-6α-yl)benzenamine]",1.4,0.41,
"Clc1ccc([C@@H]2CN3CCC[C@H]3c3ccccc32)cc1Cl (relative stereo) [XXIV, 6α-(3,4-Dichlorophenyl)-1,2,3,5,6,10bα-hexahydropyrrolo[2,1-a]isoquinoline]",,,ED50 [3]: ~40 mg/kg; ED50 [4]: 8 mg/kg
"Clc1ccc([C@@H]2CN3CCC[C@@H]3c3ccccc32)cc1 (relative stereo) [XXIX, [6α,10bβ]-6-(4-Chlorophenyl)-1,2,3,5,6,10b-hexahydropyrrolo[2,1-a]isoquinoline]",,,ED50 [3]: 0.27 mg/kg; ED50 [4]: 0.13 mg/kg
"C[C@@]1(c2ccccc2)CN2CCC[C@@H]2c2ccccc21 (relative stereo) [XXV, 1,2,3,5,6,10bβ-Hexahydro-6-methyl-6α-phenylpyrrolo[2,1-a]isoquinoline]",27,0.7,

Structure (SMILES),ED50 [1] [mg/kg],ED50 [2] [mg/kg],further results
"Oc1cc2c(cc1O)[C@H]1CCCN1C[C@H]2c1ccccc1 (relative stereo) [XXVI, [6α,10bβ]-1,2,3,5,6,10b-Hexahydro-8,9-dihydroxy-6-phenylpyrrolo[2,1-a]isoquinoline]",0.87,0.33,
"COc1cc2c(cc1OC)[C@H]1CCCN1C[C@H]2c1ccccc1 (relative stereo) [XXVII, [6α,10bβ]-1,2,3,5,6,10b-Hexahydro-8,9-dimethoxy-6-phenylpyrrolo[2,1-a]isoquinoline]",17,7.2,
"c1ccc2c(c1)[C@H](C1CCCCC1)CN1CCC[C@H]21 (relative stereo) [XXVIII, [6α,10β]-6-Cyclohexyl-1,2,3,5,6,10b-hexahydropyrrolo[2,1-a]isoquinoline]",6.4,1.9,
"Clc1ccc([C@@H]2CN3CCC[C@H]3c3ccccc32)cc1 (relative stereo) [XXX, 6α-(4-Chlorophenyl)-1,2,3,5,6,10bα-hexahydropyrrolo[2,1-a]isoquinoline]",,,ED50 [3]: 8.1 mg/kg; ED50 [4]: 5.4 mg/kg
"COc1ccc([C@@H]2CN3CCC[C@H]3c3ccccc32)cc1 (relative stereo) [XXXI, 1,2,3,5,6,10bα-Hexahydro-6α-(4-methoxyphenyl)pyrrolo[2,1-a]isoquinoline]",~60,3,
"Clc1ccc([C@@H]2CN3CCC[C@@H]3c3cc(Cl)ccc32)cc1 (relative stereo) [XXXII, [6α,10bβ]-9-Chloro-6-(4-chlorophenyl)-1,2,3,5,6,10b-hexahydropyrrolo[2,1-a]isoquinoline]",37,4,
"COc1ccc([C@@H]2CN3CCC[C@@H]3c3ccccc32)cc1 (relative stereo) [XXXIII, 1,2,3,5,6,10bβ-Hexahydro-6α-(4-methoxyphenyl)pyrrolo[2,1-a]isoquinoline]",7,0.19,
"COc1ccc2c(c1)[C@@H]1CCCN1C[C@H]2c1ccccc1 (relative stereo) [XXXIX, 1,2,3,5,6,10bα-Hexahydro-9-methoxy-6α-phenylpyrrolo[2,1-a]isoquionline]",~40,8,
"Oc1ccc([C@@H]2CN3CCC[C@@H]3c3ccccc32)cc1O (relative stereo) [XXXV, 4-(1,2,3,5,6,10bβ-Hexahydropyrrolo[2,1-a]isoguinolin-6α-yl)benzene-1,2-diol]",1.4,0.13,
"Oc1ccc([C@@H]2CN3CCC[C@H]3c3ccccc32)cc1O (relative stereo) [XXXVII, 4-(1,2,3,5,6,10bα-Hexahydropyrrolo[2,1-a]isoquinolin-6a-yl)-1,2-benzenediol]",30,1.8,
"O=[N+]([O-])c1ccc([C@@H]2CN3CCC[C@@H]3c3ccccc32)cc1 (relative stereo) [XXXVIII, 1,2,3,5,6,10bβ-hexahydro-6α-(4-nitrophenyl)-pyrrolo[2,1-a]isoquinoline]",0.51,0.15,
"c1ccc([C@@H]2CN3CCC[C@@H]3c3ccccc32)cc1 (relative stereo) [Xb, [6α,10bβ]-1,2,3,5,6,10b-Hexahydro-6-phenyl-pyrrolo[2,1-a]isoquinoline]",0.34,0.07,
"OC1(c2ccccc2)CN2CCCC2c2ccccc21 (single isomer, unassigned) [XLIII, 1,2,3,5,6,10b-Hexahydro-6-phenylpyrrolo[2,1-a]isoquinolin-6-ol]",,,"TBZ ED50, EA (exploratory activity) [5]: 33 mg/kg; TBZ ED50, Pt (reversal of ptosis) [6]: 5.0 mg/kg"
"OC1(c2ccccc2)CN2CCCC2c2ccccc21 (single isomer, unassigned) [XXXIV, 1,2,3,5,6,10b-Hexahydro-6-phenylpyrrolo[2,1-a]isoquinolin-6-ol]",,,"TBZ ED50, EA (exploratory activity) [5]: 8.4 mg/kg; TBZ ED50, Pt (reversal of ptosis) [6]: 1.6 mg/kg"
"FC1(c2ccccc2)CN2CCCC2c2ccccc21 (stereo not drawn) [LIII, 6α-Fluoro-1,2,3,5,6,10bα-hexahydro-6-phenylpyrrolo[2,1-a]isoquinoline]",,,"ED50 [4]: 1.2 mg/kg; percent inhibition at a certain dose, EA (exploratory activity) (mice, i.p., @ 40 mg/kg): 60%"
"Oc1ccc(C2CN3CCCC3c3ccccc32)cc1 (stereo not drawn) [XXXVI, 4-(1,2,3,5,6,10bα-Hexahydropyrrolo[2,1-a]isoquinolin-6α-yl)phenol]",,,"TBZ ED50, EA (exploratory activity) [5]: ca. 14 mg/kg; TBZ ED50, Pt (reversal of ptosis) [6]: 10 mg/kg"

# From patent US4595688A, “Hexahydropyrrolo[2,1-a]isoquinoline derivatives and antidepressant use thereof” (priority 1984, dated 1986)
